Data from patent US11965810B2, “Multiplexed on-chip impedance cytometry system and method” (UNIVERSITY OF VIRGINIA PATENT FOUNDATION, priority 2018, dated 2024).
Entries after “also recorded” stand apart in the source; their conditions may differ.

What was measured:
PDXs of 608 [1] = experiment: Impedance phase contrast assessment of drug sensitivity, Gemcitabine-treated PDXs of 608; type: cell-based, human; conditions: standard 2D cell culture plate, right from Day 1, more clearly Day 2-5, FIG. 15A
Text: (§1) In this context, since alterations in subcellular electrophysiology in response to drug-induced apoptosis or autophagy occur earlier in the cell cycle than apparent with staining-based or imaging approaches, the exemplary method and system in using electrophysiology for kinetic monitoring may be used to track differences in stochastic cell sensitivity to various drugs. Additionally, the exemplary electrophysiology method and system require no sample preparation steps for staining or image contrast enhancement, thereby preserving the state of fragile apoptotic cells. […] As a non-limiting example, sensitivity of the electrophysiology of patient-derived pancreatic tumor xenografts (PDXs) to the chemotherapy drug gemcitabine may be used to illustrate the assay. Currently, treatment with folfirinox drug combination is the preferred first-line therapy for pancreatic cancer, but a significant fraction of patients cannot tolerate the overall drug cytotoxicity. […] On the other hand, for Control (untreated) versus Gemcitabine-treated PDXs of mPanc (FIG. 15B), the alterations are only modest over all five days. Indeed, the drug sensitivity determination based on tumor size takes 5 days.

PDXs of mPanc [2] = conditions: PDX mPanc; cited from earlier work
PDXs of 608 [3] = conditions: PDX 608; cited from earlier work
PDXs of mPanc [4] = experiment: Impedance phase contrast assessment of drug sensitivity, Gemcitabine-treated PDXs of mPanc; type: cell-based, human; conditions: standard 2D cell culture plate, over all five days, FIG. 15B
Text: as §1

cells (cell cycle phase) [5] = experiment: Cell cycle phase assessment by impedance cytometry (ϕZ contrast) after CPT treatment; type: cell-based; conditions: FIG. 16
Text: FIG. 16 illustrates that the exemplary impedance contrast method and system can be used to detect lineage of cells based on differences of phases of cell cycle in accordance with an illustrative embodiment. That is, differences in electrophysiology between cells in G1 phase versus those with S and G2 phase can be detected using the phase contrast metric that is sensitive to interior conductivity, which can be an indicator of nucleus size (i.e., cell cycle phase/stage).
In FIG. 16, it can be observed that increasing the proportion of cells in the G2 phase increases the proportion of cells in the high impedance phase contrast (ϕZ contrast) region between 5 nM and 10 nM CPT treatment, whereas lowering the proportion of cells in G2 phase by […] CPT treatment lowers the proportion of cells in the high impedance phase contrast (ϕZ contrast) region.
(§2) FIGS. 16A, 16D, 16G, and 16J, corresponding to subpanel (a), (d), (g), and (j) are from flow cytometry, while the analogous impedance cytometry plots are in FIGS. 16B, 16C, 16E, 16F, 16H, 16I, 16K, and 16L (corresponding to subpanel (b) and (c), (e) and (f), (h) and (i), and (k) and (l)), respectively.
(§3) As per FIG. 16, indeed, CPT treatment at 5 nM and 10 nM levels increases the proportion of the sum of S and G2 phase cells, which can be detected based on the proportion of cells in the high impedance phase contrast (ϕZ contrast) region.

cells (cell cycle phase) [6] = experiment: Cell cycle phase analysis by flow cytometry after CPT treatment; type: cell-based; conditions: FIG. 16
Text: Quantifying the proportion of cells in each phase of a cell cycle, including mitotic phases is widely carried out by flow cytometry using a stoichiometric fluorescent stain for DNA that reports the cells' position within the G1, S and G2 phases of the cell cycle. However, these stains are not compatible with live cell analysis.
as §2, §3

Compound	impedance phase contrast, Control (untreated) versus Gemcitabine-treated (PDXs of 608 [1])	known sensitivity to gemcitabine (PDXs of mPanc [2])	known sensitivity to gemcitabine (PDXs of 608 [3])	impedance phase contrast, Control (untreated) versus Gemcitabine-treated (PDXs of mPanc [4])	proportion of cells in the high impedance phase contrast (ϕZ contrast) region (cells (cell cycle phase) [5]; CPT treatment at 100 nM)	proportion of cells in the high impedance phase contrast (ϕZ contrast) region (cells (cell cycle phase) [5]; between 5 nM and 10 nM CPT treatment)	proportion of the sum of S and G2 phase cells (cells (cell cycle phase) [6]; CPT treatment at 5 nM)	proportion of the sum of S and G2 phase cells (cells (cell cycle phase) [6]; CPT treatment at 10 nM)	proportion of cells in S phase (cells (cell cycle phase) [6]; CPT treatment at 100 nM)	proportion of cells in the G2 phase (cells (cell cycle phase) [6]; CPT treatment at 100 nM)
Nc1ccn([C@@H]2O[C@H](CO)[C@@H](O)C2(F)F)c(=O)n1 [Gemcitabine, gemcitabine]	statistically significant differences	relatively more resistant	sensitive	only modest						
CC[C@@]1(O)C(=O)OCc2c1cc1n(c2=O)Cc2cc3ccccc3nc2-1 [CPT]					lowers; also recorded: substantive decrease	increases	increases	increases	increasing	lowering; also recorded: lowers
